Experimental findings from ChEMBL document CHEMBL1201862, “PubChem BioAssay data set” (2004) are described below.

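Cells were grown in 96-well plates and exposed to each compound for 48 hours at five concentrations; endpoints were interpolated linearly between bracketing concentrations, or set to the highest concentration if not reached. Here, GI50 denotes the concentration required for 50% inhibition of growth.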 Activity calls are given as the source filed them. No stated cut-off is given here; in the data, active = GI50 up to about 1.1 µM and inactive = higher. A value given as a limit tells only on which side of the number the result lay.

Some test systems named below: A498; SW-620; HCT-15; SF-268; SNB-75; OVCAR-4; SK-MEL-2; U-251; UACC-62; KM12; K562; SNB-19; HCC 2998; HL-60; COLO 205; PC-3; NCI-H460; MOLT-4; OVCAR-5; SK-OV-3.
Assay in all cases: NCI tumour cell line growth inhibition, 48 h

For the compound `Cc1cccc(C)c1NC(=O)Nc1ccc(S(N)(=O)=O)cc1`, the GI50 with A498 was > 100 µM (inactive); with SW-620, > 100 µM (inactive); in the assay on HCT-15 it was greater than 100 µM; in the assay on SF-268, > 100 µM (inactive); in the assay with SNB-75, > 100 µM (inactive); in the assay with OVCAR-4, > 100 µM (inactive). Further, the GI50 with SK-MEL-2, with U-251, in the assay on UACC-62, in the assay with KM12, with K562 and in the assay with SNB-19 was > 100 µM (inactive) throughout. Also, the GI50 in the assay on HCC 2998, with HL-60, in the assay with COLO 205, in the assay with PC-3, in the assay on NCI-H460 and in the assay on MOLT-4 was > 100 µM (inactive) throughout. Also, the GI50 in the assay on OVCAR-5 and in the assay with SK-OV-3 was > 100 µM (inactive) in each case.
With `COc1cccc(N2C(=O)CSC2c2cccc(Oc3ccccc3)c2)c1` (stereo not given), the GI50 is 3.94 µM (inactive) in the assay with A498; 4.8 µM (inactive) in the assay on SW-620; 4.21 µM in the assay on HCT-15; 6.79 µM (inactive) with SF-268; 3.9 µM (inactive) with SNB-75; 10.3 µM (inactive) in the assay with OVCAR-4. Moreover, the GI50 was 4.28 µM (inactive) in the assay on SK-MEL-2; 5.22 µM (inactive) with U-251; 3.21 µM (inactive) in the assay with UACC-62; 4.35 µM (inactive) in the assay with KM12; 3.42 µM (inactive) in the assay with K562; 8.41 µM (inactive) with SNB-19. The GI50 in the assay on HCC 2998 was 3.14 µM (inactive); in the assay on HL-60, 4.39 µM (inactive); in the assay with COLO 205, 3.37 µM (inactive); in the assay with PC-3, 5.3 µM (inactive); in the assay on NCI-H460, 3.33 µM (inactive); in the assay with MOLT-4 it was 3.88 µM (inactive). Further, the results for the GI50 in the assay with OVCAR-5 and in the assay on SK-OV-3 were 18.5 µM (inactive) and 16.1 µM (inactive), respectively.
Regarding `C=CCc1cccc2cc(C(=O)Nc3ccc(C)cc3)c(=N)oc12`, the GI50 in the assay on A498 is > 100 µM (inactive); with SW-620, > 100 µM (inactive); in the assay with HCT-15, greater than 100 µM; in the assay on SF-268 it was > 100 µM (inactive); in the assay with SNB-75 it was > 100 µM (inactive); in the assay on OVCAR-4 it was > 100 µM (inactive). Also, the GI50 in the assay on SK-MEL-2 is 45.2 µM (inactive); in the assay with U-251, > 100 µM (inactive); in the assay with UACC-62, > 100 µM (inactive); with KM12, > 100 µM (inactive); in the assay on K562, > 100 µM (inactive); in the assay on SNB-19, > 100 µM (inactive). For the same compound, the GI50 in the assay with HCC 2998, in the assay with HL-60, in the assay on COLO 205, with PC-3, in the assay with NCI-H460 and in the assay with MOLT-4 was > 100 µM (inactive) in each case. Moreover, the GI50 with OVCAR-5 and in the assay with SK-OV-3 was > 100 µM (inactive) in each case.
With `CN(C1=NCCO1)c1cccc2ccccc12`, the GI50 with A498 was > 10 µM (inactive); in the assay on SW-620, > 10 µM (inactive); with HCT-15, greater than 10 µM; in the assay with SF-268 it was > 10 µM (inactive); with SNB-75, 9.29 µM (inactive); with OVCAR-4, > 10 µM (inactive). For the same compound, the GI50 in the assay with SK-MEL-2, in the assay with U-251, in the assay with UACC-62, in the assay on KM12, in the assay with K562 and in the assay with SNB-19 was > 10 µM (inactive) in each case. For the same compound, the GI50 with HCC 2998, in the assay with HL-60, in the assay on COLO 205, with PC-3, in the assay on NCI-H460 and with MOLT-4 was > 10 µM (inactive) throughout. The GI50 in the assay with OVCAR-5 and in the assay with SK-OV-3 was > 10 µM (inactive) throughout.
